Measurements reported in article doi:10.1101/2024.11.19.623840, “Targeting GOF p53 and c-MYC through LZK Inhibition or Degradation Suppresses Head and Neck Tumor Growth” (bioRxiv, 2024).

Key:
[1] = biological target: T1, LZK (leucine zipper-bearing kinase) (Homo sapiens, UniProt O43283); assay: LZK degradation Western blot in CAL33 cells with dox-induced LZK; format: cell-based
T1 construct: gene MAP3K13
T1 sequence (O43283 1-966): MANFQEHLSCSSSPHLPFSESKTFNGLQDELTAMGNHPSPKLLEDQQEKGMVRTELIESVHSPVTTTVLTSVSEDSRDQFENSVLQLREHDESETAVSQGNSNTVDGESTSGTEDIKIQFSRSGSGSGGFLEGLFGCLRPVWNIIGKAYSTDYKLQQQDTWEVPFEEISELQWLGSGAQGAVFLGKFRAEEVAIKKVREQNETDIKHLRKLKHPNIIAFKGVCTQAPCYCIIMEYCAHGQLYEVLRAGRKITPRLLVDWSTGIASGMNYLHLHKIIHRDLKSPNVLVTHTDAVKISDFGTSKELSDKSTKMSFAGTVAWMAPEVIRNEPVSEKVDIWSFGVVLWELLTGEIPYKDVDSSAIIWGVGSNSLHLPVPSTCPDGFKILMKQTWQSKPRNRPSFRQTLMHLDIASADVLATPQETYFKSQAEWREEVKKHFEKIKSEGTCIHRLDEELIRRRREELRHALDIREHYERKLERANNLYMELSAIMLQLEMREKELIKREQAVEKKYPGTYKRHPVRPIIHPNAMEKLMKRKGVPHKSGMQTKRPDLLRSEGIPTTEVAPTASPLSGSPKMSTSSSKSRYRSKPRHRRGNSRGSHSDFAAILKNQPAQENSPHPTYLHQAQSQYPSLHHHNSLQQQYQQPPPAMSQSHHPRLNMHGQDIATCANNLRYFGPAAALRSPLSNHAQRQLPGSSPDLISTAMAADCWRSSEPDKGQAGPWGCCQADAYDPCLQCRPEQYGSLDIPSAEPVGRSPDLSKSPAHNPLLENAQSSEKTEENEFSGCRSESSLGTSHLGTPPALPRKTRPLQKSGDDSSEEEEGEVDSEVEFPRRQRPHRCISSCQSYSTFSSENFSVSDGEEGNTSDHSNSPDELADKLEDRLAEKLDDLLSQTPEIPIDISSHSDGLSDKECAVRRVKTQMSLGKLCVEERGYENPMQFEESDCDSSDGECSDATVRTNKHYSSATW

[2] = biological target: T1, LZK (leucine zipper-bearing kinase); assay: KdELECT KINOMEscan competition binding assay

Kd [2]	SMILES	LZK degradation Western blot in CAL33 cells with dox-induced LZK [1]
	Cc1ncsc1-c1ccc([C@H](C)NC(=O)[C@@H]2C[C@@H](O)CN2C(=O)[C@@H](NC(=O)c2cncc(C(=O)N3CCC(c4cc(Nc5cc(C#N)ccn5)nc(N5CCC(F)(F)C5)c4)CC3)c2)C(C)(C)C)cc1 [PROTAC-21C]	PROTAC-21B, PROTAC-21C and PROTAC-21D (Figure 5B) also promoted degradation of LZK at higher concentrations
35 nM	Cc1ncsc1-c1ccc([C@H](C)NC(=O)[C@@H]2C[C@@H](O)CN2C(=O)[C@@H](NC(=O)CCCCCCC(=O)N2CCC(c3cc(Nc4cc(C#N)ccn4)nc(N4CCC(F)(F)C4)c3)CC2)C(C)(C)C)cc1 [PROTAC-21A]	
	N#Cc1ccnc(Nc2cc(C3CCN(C(=O)CCCCCCC(=O)NCCCCNC(=O)CNc4cccc5c4C(=O)N(C4CCC(=O)NC4=O)C5=O)CC3)cc(N3CCC(F)(F)C3)n2)c1 (stereo not shown) [PROTAC-21B]	PROTAC-21B, PROTAC-21C and PROTAC-21D (Figure 5B) also promoted degradation of LZK at higher concentrations
	N#Cc1ccnc(Nc2cc(C3CCN(C(=O)c4cncc(C(=O)NCCCCNC(=O)CNc5cccc6c5C(=O)N(C5CCC(=O)NC5=O)C6=O)c4)CC3)cc(N3CCC(F)(F)C3)n2)c1 (stereo not shown) [PROTAC-21D]	PROTAC-21B, PROTAC-21C and PROTAC-21D (Figure 5B) also promoted degradation of LZK at higher concentrations
